Measured values reported in PubChem BioAssay (NCI).
Where “and” joins values, the source holds several entries; their conditions need not be identical. Equal values may be shown once.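 Where inhibition never reached the appropriate level, the endpoint shown equals the highest concentration tested. Otherwise, values were interpolated linearly from a five-concentration, 48-hour dose response in 96-well plates. Here, GI50 denotes the concentration required for 50% inhibition of growth. TGI: concentration producing complete growth inhibition.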

Experiments:
Assay in all cases: growth of human tumour cells (NCI), 48 h
[1] = tested on: SF-268 CNS
[2] = tested on: M14 melanoma
[3] = tested on: K-562 leukemia
[4] = tested on: SK-MEL-2 melanoma
[5] = tested on: HT29 colon
[6] = tested on: OVCAR-8 ovarian
[7] = tested on: OVCAR-4 ovarian
[8] = tested on: SK-MEL-28 melanoma
[9] = tested on: COLO 205 colon
[10] = tested on: MDA-MB-231 breast

SMILES | GI50 [1] [nM] | TGI [1] | GI50 [2] [nM] | TGI [2] | GI50 [3] | TGI [3] | GI50 [4] | TGI [4] | GI50 [5] [nM] | TGI [5] | GI50 [6] | TGI [6] | GI50 [7] [nM] | TGI [7] | GI50 [8] | TGI [8] | GI50 [9] [nM] | TGI [9] | GI50 [10] [nM] | TGI [10]
COC(=O)COc1ccccc1/C=C1\N=C(c2ccccc2)N(c2cc(C(F)(F)F)ccc2Cl)C1=O | 29800 | > 100000 nM | 37900 | > 100000 nM | 33800 nM | > 100000 nM | 28500 nM | > 100000 nM | 73200 | > 100000 nM | 37300 nM | > 100000 nM | 39500 | > 100000 nM | 47600 nM | > 100000 nM | 31700 | > 100000 nM | > 100000 | > 100000 nM
CC/C=C\C[C@H](O)C/C=C1/C(=O)C(Cl)=C[C@@H]1C/C=C\CCCC(=O)OC | 505 | 2340 nM | 611 | 3430 nM | 269 nM | 16700 nM | 843 nM | 3520 nM | 406 | 1070 nM | 347 nM | 864 nM | 723 | 3210 nM | 432 nM | 1310 nM | 550 | 1690 nM | 710 | 2900 nM
Nc1ccc([N+](=O)[O-])cc1N=C/C=C/c1ccccc1 | 5910 | 40600 nM | 8660 | > 100000 nM | 5430 nM | > 100000 nM | 28600 nM | > 100000 nM | 5050 | 67100 nM | 23500 nM | > 100000 nM | 11200 | 90200 nM | 29700 nM | > 100000 nM | 23000 | > 100000 nM | 7570 | > 100000 nM
CCCCC#CC1=C(Br)C(=O)OC1 | 2470 | 10200 nM | 1260 | 3710 nM | 279 nM | > 100000 nM | 3120 nM | 15200 nM | 2850 | > 22100 nM | 1750 nM | 10200 nM | 3990 | 11300 nM | 3480 nM | 16400 nM | 2660 | > 22200 nM | 1780 | 4030 nM
CCN(CC)CCC(CNc1ccnc2cc(Cl)ccc12)c1ccc(Cl)cc1 (stereo not drawn) | 1970 | 4610 nM | 211 | 470 nM | 312 nM | 1160 nM | 1570 nM | 3180 nM | 282 | 1490 nM | 1860 nM | 4790 nM | 764 | 4320 nM | 763 nM | 2060 nM | 1130 | 2500 nM | 1280 | 3210 nM
CN1CCN(C2CCN(C(=O)Nc3cc(Oc4ccc(NC(=O)C5(C(=O)Nc6ccc(F)cc6)CC5)c(F)c4)ccn3)CC2)CC1 |  | > 2960 nM | 639 | 1800 nM | 514 nM | > 2530 nM | 744 nM | 2180 nM | 806 | > 4380 nM |  | > 10000 nM | 1140 | 9840 nM | 771 nM | 2280 nM | 977 | > 2190 nM | 981 | > 7000 nM
COc1cc(C(=O)N2CCN(C=O)C2=S)cc(OC)c1OC | 21400 | 43700 nM | 20600 | 41600 nM | 30800 nM | > 100000 nM | 19900 nM | 42000 nM | 26700 | 66400 nM | 24000 nM | 65200 nM | 24100 | 58900 nM | 29500 nM | > 100000 nM | 20200 | 39400 nM | 21500 | 57900 nM
N#Cc1c(NC(=O)NCc2ccccc2)sc2c1CCCCC2 | 1520 | > 100000 nM | 415 | > 100000 nM | 371 nM | > 100000 nM | 2270 nM | > 100000 nM | 398 | > 100000 nM | 1610 nM | > 100000 nM | 1320 | > 100000 nM | 2770 nM | > 100000 nM | 521 | 3740 nM | 973 | 13900 nM
COc1cccc2c1C(=O)c1c(O)c3c(c(O)c1C2=O)C[C@@](O)(C(=O)CO)C[C@@H]3OC1CC(N)CC(C)O1 (stereo partly drawn) | 51.5 | 461 nM and 937 nM | 36 | 278 nM and 218 nM | 24.3 nM and 41.4 nM | 783 nM and 406 nM | 125 nM and 76.9 nM | 315 nM and 220 nM | 29.6 | 1100 nM and 809 nM | 35.9 nM and 52 nM | 1130 nM and 546 nM | 88.5 | 456 nM and 413 nM | 135 nM and 93.8 nM | 325 nM and 477 nM | 82.3 | 389 nM and 351 nM | 232 | 675 nM and 780 nM
